Series [1] concerns SARS-CoV-2. As to conditions: 35 compounds tested.
Another series can be described thus: in vitro. As to conditions: human, EC50, compound toxicity in the context of infection, total cell numbers per well; average±sem of 5 independent experiments.
The test system of series [2] is SARS-CoV-2. Description: microbe, parasite or virus in culture. As to conditions: Severe acute respiratory syndrome coronavirus 2, HeLa-ACE2, 24 h.
The next series relates to SARS-CoV-2/WA1. Format: cell-based. As to conditions: Severe acute respiratory syndrome coronavirus 2, HeLa-ACE2.

Each structure is given as a SMILES string.

For the compound `Cc1c2c(nn1C)CSCc1cc(n(C)n1)CSc1cc(c3ccccc3c1)OCCCc1c(C(=O)O)n(C)c3c-2c(Cl)ccc13` [AZD-5991], the “activity in the HeLa-ACE2 cell-based SARS-CoV-2 assay” value (“activity” below) in the series on SARS-CoV-2 [1] was “demonstrated activity”.

`COc1cc(Cl)cc(C(C)Nc2cc(N3CCNCC3)ccc2S(C)(=O)=O)c1OC.Cl` (stereo not shown) [PRX-07034]: the “activity” value in the series with SARS-CoV-2 [1] is “demonstrated activity”.

As to `Nc1ncnc2c1nc(Cl)n2[C@@H]1O[C@@H]2COP(=O)(O)O[C@H]2[C@H]1O` [tocladesine], the “activity” value with SARS-CoV-2 [1] is reported as “demonstrated activity”.

For orientation: EC50 means the concentration needed to bring the measured effect to its halfway point. A higher EC50 goes with weaker potency. In turn, `COc1ccc(C[C@H](N)C(=O)N[C@H]2[C@@H](O)[C@H](n3cnc4c(N(C)C)ncnc43)O[C@@H]2CO)cc1` [puromycin] yielded an EC50 in the series “in vitro” of 547 ± 27 nM.

As a reminder, the IC50 is the concentration at which inhibition is half-maximal. `CNCc1ccc(-c2cc(-c3nc(-c4ccc(S(=O)(=O)C(C)C)cc4)cnc3N)on2)cc1` [berzosertib, reference compound] displayed an EC50 with SARS-CoV-2 [2] of 114 nM. Besides, the 50% inhibitory concentration (IC50) with SARS-CoV-2/WA1 was 110 nM. Further, in the series with SARS-CoV-2 [1], the “activity” value is on record as “demonstrated activity”.
